The results in this text go back to paper PMC13266984 (Journal of medicinal chemistry, 2026).

The structures appear in SMILES notation.

What is called AC50 is the concentration at which the activity in the assay is half-maximal. The low end stands for activity at low concentration, the high end for activity only at high concentration.

One assay has as its target T1, OE19 (3A1) (Homo sapiens, UniProt P30838).
T1 sequence (P30838 1-453): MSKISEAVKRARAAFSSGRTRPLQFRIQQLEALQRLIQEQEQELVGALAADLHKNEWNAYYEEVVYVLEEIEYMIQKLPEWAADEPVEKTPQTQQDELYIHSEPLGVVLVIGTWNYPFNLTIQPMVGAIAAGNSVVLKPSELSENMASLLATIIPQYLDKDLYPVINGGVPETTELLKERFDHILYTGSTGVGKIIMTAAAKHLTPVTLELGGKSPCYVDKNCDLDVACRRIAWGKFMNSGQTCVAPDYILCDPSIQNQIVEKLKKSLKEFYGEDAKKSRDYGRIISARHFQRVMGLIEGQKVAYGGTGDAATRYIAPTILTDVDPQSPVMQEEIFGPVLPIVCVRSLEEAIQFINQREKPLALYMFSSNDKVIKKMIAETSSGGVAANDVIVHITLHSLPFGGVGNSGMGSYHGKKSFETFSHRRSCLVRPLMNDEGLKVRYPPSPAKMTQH
Nature of the assay: Cellular ALDEFLUOR assay in OE19 cells (preferential ALDH3A1 expression). As to conditions: for Cell_Efficacy: Table S4, OE19 cells; for Cell_CC-v2: Table S4, cellular curve class.

The next assay has as its target T2, Human ALDH3A1 (Homo sapiens, UniProt P30838).
T2 sequence (P30838 1-453): T1 sequence (P30838 1-453)
Briefly: ALDH3A1 biochemical assay (benzaldehyde/NADP+, diaphorase-resazurin readout, 1,536-well). As to conditions: for Efficacy: Table S4, biochemical; for CC-v2: Table S4, biochemical curve class. A general note: Alamar Blue is a resazurin reagent that responds to reducing activity.

With `Cc1cccc(CNC(=O)c2csc(N3CCN(c4cccc([S+](C)(=O)[O-])c4)CC3)n2)c1` [NCGC01210723-01], on OE19 (3A1), the AC50 was found to be 1240 nM, the Cell_Efficacy was -75.10 and the Cell_CC-v2 is given as -1.2. Also, at Human ALDH3A1, half-maximal activity (AC50) was put at 3640 nM, the Efficacy was -72.64 and the CC-v2 is listed as -1.2.

On OE19 (3A1), `Cc1cccc(CNC(=O)c2csc(N3CCN(c4cccc([S+](=O)([O-])C(F)(F)F)c4)CC3)n2)c1` [NCGC01210726-01] showed an AC50 of 15700 nM, a Cell_Efficacy of -81.37 and a Cell_CC-v2 of -1.2. At Human ALDH3A1, the AC50 came to 18200 nM, the Efficacy is reported as -54.32 and the CC-v2 was -1.2.

On OE19 (3A1), `COc1ccccc1N1CCN(c2nc(C(=O)NCc3cccc(C)c3)cs2)CC1` [NCGC01210996-01] returned an AC50 of 50 nM, a Cell_Efficacy of -98.32 and a Cell_CC-v2 of -1.3. At Human ALDH3A1, this compound gave an AC50 of 910 nM, an Efficacy of -91.28 and a CC-v2 of -1.1.

At OE19 (3A1), `Cc1cccc(CNC(=O)c2csc(N3CCN(c4cccc(OCc5ccc(Cl)cc5)c4)CC3)n2)c1` [NCGC01211114-01] came in with an AC50 of 1570 nM, a Cell_Efficacy of -79.67 and a Cell_CC-v2 of -1.1. At Human ALDH3A1, the AC50 came to 460 nM, the Efficacy is on record as -48.74 and the CC-v2 was -1.2.

On OE19 (3A1), `COC(=O)c1ccc(N2CCN(c3nc(C(=O)NCc4cccc(C)c4)cs3)CC2)cc1` [NCGC01211115-01] registered an AC50 of 990 nM, a Cell_Efficacy of -81.24 and a Cell_CC-v2 of -1.1. On Human ALDH3A1, this compound came in with an AC50 of 1290 nM, an Efficacy of -72.39 and a CC-v2 of -1.2.

At OE19 (3A1), `Cc1cccc(CNC(=O)c2csc(N3CCN(c4cccc(O)c4)CC3)n2)c1` [NCGC01211119-01] registered a half-maximal activity concentration (AC50) of 15700 nM, a Cell_Efficacy of -77.14 and a Cell_CC-v2 of -1.2. Also, at Human ALDH3A1, the activity was half-maximal at 2570 nM (AC50), the Efficacy is recorded as -61.43 and the CC-v2 is -1.2.

Consider `Cc1cccc(CNC(=O)c2csc(N3CCN(c4ccc(Cl)c(Cl)c4)CC3)n2)c1` [NCGC01211120-01], for which, on OE19 (3A1), the activity was half-maximal at 790 nM (AC50), the Cell_Efficacy is reported as -88.59 and the Cell_CC-v2 is reported as -1.1. On Human ALDH3A1, this compound showed an AC50 of 510 nM, an Efficacy of -83.25 and a CC-v2 of -1.1.

As for `Cc1cccc(CNC(=O)c2csc(N3CCN(c4ccccc4Cl)CC3)n2)c1` [NCGC01211121-01], at OE19 (3A1), the activity was half-maximal at 12400 nM (AC50), the Cell_Efficacy is -81.66 and the Cell_CC-v2 is -1.3. At Human ALDH3A1, this compound registered an AC50 of 910 nM, an Efficacy of -88.53 and a CC-v2 of -1.1.

On OE19 (3A1), `COc1c(F)cc(N2CCN(c3nc(C(=O)NCc4cccc(C)c4)cs3)CC2)cc1F` [NCGC01211123-01] had an AC50 of 1760 nM, a Cell_Efficacy of -94.45 and a Cell_CC-v2 of -1.2. At Human ALDH3A1, the AC50 worked out at 580 nM, the Efficacy was -77.80 and the CC-v2 was -1.2.

Take `Cc1cccc(CNC(=O)c2csc(N3CCN(c4ccc(O)cc4)CC3)n2)c1` [NCGC01211126-01]: at OE19 (3A1), the AC50 was 15700 nM, the Cell_Efficacy was -68.34 and the Cell_CC-v2 is -1.2. For the same compound, at Human ALDH3A1, the AC50 worked out at 5760 nM, the Efficacy is given as -62.10 and the CC-v2 is -1.2.

At OE19 (3A1), `Cc1cccc(CNC(=O)c2csc(N3CCN(c4ccccc4F)CC3)n2)c1` [NCGC01211127-01] came in with an AC50 of 4950 nM, a Cell_Efficacy of -89.89 and a Cell_CC-v2 of -1.1. At Human ALDH3A1, this compound showed an AC50 of 1020 nM, an Efficacy of -98.80 and a CC-v2 of -1.1.

Turning to `CCc1ccc(N2CCN(c3nc(C(=O)NCc4cccc(C)c4)cs3)CC2)cc1` [NCGC01211128-01], on OE19 (3A1), the AC50 came to 3130 nM, the Cell_Efficacy is recorded as -86.59 and the Cell_CC-v2 is recorded as -1.1. At Human ALDH3A1, this compound showed an AC50 of 910 nM, an Efficacy of -85.15 and a CC-v2 of -1.1.

On OE19 (3A1), `Cc1cccc(CNC(=O)c2csc(N3CCN(c4c(Cl)cccc4Cl)CC3)n2)c1` [NCGC01211131-01] came in with an AC50 of 3130 nM, a Cell_Efficacy of -61.19 and a Cell_CC-v2 of -1.4. At Human ALDH3A1, this compound came in with an AC50 of 510 nM, an Efficacy of -89.06 and a CC-v2 of -1.1.

At OE19 (3A1), `Cc1cccc(CNC(=O)c2csc(N3CCN(c4cc(F)cc(F)c4)CC3)n2)c1` [NCGC01211133-01] came in with an AC50 of 1570 nM, a Cell_Efficacy of -95.95 and a Cell_CC-v2 of -1.1. At Human ALDH3A1, the AC50 is 650 nM, the Efficacy is reported as -87.41 and the CC-v2 is -1.1.

Turning to `Cc1cccc(CNC(=O)c2csc(N3CCN(c4ccccc4C)CC3)n2)c1` [NCGC01211138-01], on OE19 (3A1), the activity was half-maximal at 7850 nM (AC50), the Cell_Efficacy is listed as -88.54 and the Cell_CC-v2 is -1.1. On Human ALDH3A1, this compound came in with a concentration at half-maximal activity (AC50) of 1450 nM, an Efficacy of -88.86 and a CC-v2 of -1.1.

At OE19 (3A1), `Cc1cccc(CNC(=O)c2csc(N3CCN(c4ccc(Br)cc4)CC3)n2)c1` [NCGC01211165-01] gave an AC50 of 700 nM, a Cell_Efficacy of -91.24 and a Cell_CC-v2 of -1.1. On Human ALDH3A1, this compound returned an AC50 of 810 nM, an Efficacy of -72.77 and a CC-v2 of -1.2.

As to `Cc1cccc(CNC(=O)c2csc(N3CCN(c4ccc([S+](=O)([O-])F)cc4)CC3)n2)c1` [NCGC01211171-01], on OE19 (3A1), the AC50 was 1970 nM, the Cell_Efficacy is listed as -83.98 and the Cell_CC-v2 is given as -1.1. On Human ALDH3A1, this compound came in with an AC50 of 1150 nM, an Efficacy of -53.27 and a CC-v2 of -1.2.

At OE19 (3A1), `Cc1cccc(CNC(=O)c2csc(N3CCN(c4ccc(OCCF)cc4)CC3)n2)c1` [NCGC01211173-01] showed an AC50 of 1400 nM, a Cell_Efficacy of -87.33 and a Cell_CC-v2 of -1.1. On Human ALDH3A1, the AC50 was 3240 nM, the Efficacy is -45.43 and the CC-v2 is -1.2.

As to `COc1ccc(N2CCN(c3nc(C(=O)NCc4cccc(C)c4)cs3)CC2)c(OC)c1` [NCGC01211174-01], at OE19 (3A1), the AC50 was found to be 8810 nM, the Cell_Efficacy is given as -87.39 and the Cell_CC-v2 is given as -1.1. At Human ALDH3A1, the AC50 amounted to 1150 nM, the Efficacy is -66.83 and the CC-v2 is listed as -1.2.

For the compound `Cc1cccc(CNC(=O)c2csc(N3CCN(c4cccc(Sc5ccc(C)cc5C)c4)CC3)n2)c1` [NCGC01211184-01], at OE19 (3A1), the AC50 was found to be 310 nM, the Cell_Efficacy is on record as -95.63 and the Cell_CC-v2 is reported as -1.1. On Human ALDH3A1, the Efficacy was -26.97 and the CC-v2 worked out at 4.

As to `Cc1cccc(CNC(=O)c2csc(N3CCN(c4ccc(N5CCOCC5)cc4)CC3)n2)c1` [NCGC01211186-01], at OE19 (3A1), the activity was half-maximal at 3130 nM (AC50), the Cell_Efficacy was -98.82 and the Cell_CC-v2 is recorded as -1.1. On Human ALDH3A1, this compound registered an AC50 of 4080 nM, an Efficacy of -37.13 and a CC-v2 of -1.2.

At OE19 (3A1), `Cc1cccc(CNC(=O)c2csc(N3CCN(Cc4cccc(C)c4)CC3)n2)c1` [NCGC01211187-01] returned an AC50 of 4420 nM, a Cell_Efficacy of -121.01 and a Cell_CC-v2 of -2.1. On Human ALDH3A1, this compound returned an AC50 of 910 nM, an Efficacy of -93.83 and a CC-v2 of -1.1.

For the compound `COc1ccc(F)c(N2CCN(c3nc(C(=O)NCc4cccc(C)c4)cs3)CC2)c1` [NCGC01211189-01], on OE19 (3A1), the activity was half-maximal at 7850 nM (AC50), the Cell_Efficacy is given as -96.01 and the Cell_CC-v2 is on record as -1.1. At Human ALDH3A1, this compound had an AC50 of 910 nM, an Efficacy of -85.97 and a CC-v2 of -1.1.

With `Cc1cccc(CNC(=O)c2csc(N3CCN(c4ccc(C#N)cc4)CC3)n2)c1` [NCGC01211190-01], at OE19 (3A1), half-maximal activity (AC50) was put at 3510 nM, the Cell_Efficacy was -84.69 and the Cell_CC-v2 was -1.1. Moreover, on Human ALDH3A1, the activity was half-maximal at 1450 nM (AC50), the Efficacy is -61.92 and the CC-v2 was -1.2.

At OE19 (3A1), `Cc1cccc(CNC(=O)c2csc(N3CCN(c4ccc(C(N)=O)cc4)CC3)n2)c1` [NCGC01211194-01] showed an AC50 of 880 nM, a Cell_Efficacy of -43.91 and a Cell_CC-v2 of -1.2. Besides, on Human ALDH3A1, the activity was half-maximal at 40800 nM (AC50), the Efficacy is -38.00 and the CC-v2 is -2.2.

For the compound `Cc1cccc(CNC(=O)c2csc(N3CCN(c4ccc(C)c(C)c4)CC3)n2)c1` [NCGC01211295-01], at OE19 (3A1), the AC50 amounted to 2210 nM, the Cell_Efficacy was -85.13 and the Cell_CC-v2 is reported as -1.3. At Human ALDH3A1, this compound yielded an AC50 of 1020 nM, an Efficacy of -92.09 and a CC-v2 of -1.1.
